Common to all, as to assay: relative viability (nuclei count vs DMSO), 5 days (fraction); higher = more cells survive
Compound in experiment [1]: C[C@]12O[C@H](C[C@]1(O)CO)n1c3ccccc3c3c4c(c5c6ccccc6n2c5c31)CNC4=O [Lestaurtinib] + C[C@]1(O)C[C@@H](c2nc(-c3ccc4ccc(-c5ccccc5)nc4c3)c3c(N)nccn32)C1 [Linsitinib] (partner 1 µM)
Summed up: (§1)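 Relative viability equals treated-well nuclei counts divided by vehicle-well nuclei counts. Counts came from 4× images of lung cancer cell lines grown in 1536-well plates for 5 days after pin-tool dosing on the day after seeding. Dosing used one drug alone or a fixed anchor-drug dose plus five library-drug doses (not always all listed) in √10 steps, and values are medians of duplicate plates.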

Compound in experiment [2]: C1/C(=C\C2=CC=CS2)/C(=O)/C(=C/C3=CC=CS3)/C1 + Nc1nc2[nH]cc(CCc3ccc(C(=O)N[C@@H](CCC(=O)O)C(=O)O)cc3)c2c(=O)[nH]1 [Pemetrexed] (partner 0.2 µM)
Summed up:
as §1

Compound in experiment [3]: C1/C(=C\C2=CC=CS2)/C(=O)/C(=C/C3=CC=CS3)/C1 + Cc1nc(NC(=O)N2CCC[C@H]2C(N)=O)sc1-c1ccnc(C(C)(C)C(F)(F)F)c1 [Alpelisib] (partner 2 µM)
A digest of the protocol: as §1

Compound in experiment [4]: C[C@]12O[C@H](C[C@]1(O)CO)n1c3ccccc3c3c4c(c5c6ccccc6n2c5c31)CNC4=O [Lestaurtinib] + CS(=O)(=O)N1CCN(Cc2cc3nc(-c4cccc5[nH]ncc45)nc(N4CCOCC4)c3s2)CC1 [Pictilisib] (partner 1 µM)
Summed up:
as §1

On to UMC-11, for which the relative viability was determined as 1.08 in experiment [1] (first compound 0.005 µM); 1.06 in experiment [1] (first compound 0.01581 µM); 0.575 in experiment [1] (first compound 0.05 µM); 0.339 in experiment [1] (first compound 0.1581 µM); 0.175 in experiment [1] (first compound 0.5 µM); 0.816 in experiment [2] (first compound 0.2 µM). Further, the relative viability in experiment [2] (first compound 0.6325 µM) turned out to be 0.817; in experiment [2] (first compound 2 µM), 0.789; in experiment [2] (first compound 6.325 µM), 0.563; in experiment [2] (first compound 20 µM), 0.824; in experiment [3] (first compound 0.2 µM) it was 1.04; in experiment [3] (first compound 0.6325 µM) it was 1.1. Also, the relative viability in experiment [3] (first compound 2 µM) was found to be 0.847; in experiment [3] (first compound 20 µM), 0.952; in experiment [4] (first compound 0.005 µM), 0.83; in experiment [4] (first compound 0.01581 µM) it was 0.767; in experiment [4] (first compound 0.05 µM), 0.415; in experiment [4] (first compound 0.1581 µM), 0.366. Moreover, the relative viability in experiment [4] (first compound 0.5 µM) came to 0.145.

The record behind these values is the supplement of paper PMC10307832.
